Patent US7309497B2, “Injectable pharmaceutical composition for systematic administration of pharmacologically active ingredients” (Schwarz Pharma AG, priority 2000, dated 2007)
Where two headings read alike, the source gives them in different places. One block for each molecule: values may come before it.

Key:
[1] = Bioavailability and release of N-0923 from the depot composition per the invention; format: in vivo
From the text: The composition according to the invention is particularly preferred for the administration of N-0923 hydrochloride, and especially so in a formulation with crystalline N-0923 hydrochloride. The latter can be produced for instance as described in U.S. Pat. No. 4,564,628.

[2] = distinct first-pass effect; cited from earlier work
[3] = intravenously injected aqueous solutions; tests with animals; cited from earlier work
[4] = subcutaneous administration; tests with animals; cited from earlier work
[5] = cited from earlier work
[6] = in vivo; cited from earlier work
[7] = in vivo; cited from earlier work; remark: listed apart in the source

relationship of plasma agent levels to the dose introduced in the body ([1]; depot composition): linear relationship
time over which the active agent is released from the depots in the body in a therapeutically effective amount ([1]; depot composition): over 48 hours
bioavailability ([1]; plasma, depot composition with N-0923, read-out: bioavailability of the pharmaceutical composition per the invention): ~70%
Molecule: CCCN(CCc1cccs1)[C@H]1CCc2c(O)cccc2C1 [N-0923, S(−)-2-(N-propyl-N-2-thienylerhyl-amino)-5-hyroxytetralin]
bioavailability after oral administration [2]: about 0.5%
half-time value [3]: 52 min
half-time value [4]: 60 to 70 min

Molecule: N[C@@H](Cc1ccc(O)c(O)c1)C(=O)O [levodopa]
half-time in the plasma [5]: 1 to 3 h

Molecule: proinsulin C-peptide
half-time value [6]: about 30 minutes

Molecule: O=c1[nH]cc(F)c(=O)[nH]1 [5-fluorouracil]
half-time value [7]: 10 to 20 min
